Measurements taken from patent publication US20140163048A1, “COMPOSITIONS WITH INCREASED STABILITY FOR INHIBITING TRANSIENT RECEPTOR POTENTIAL ION CHANNEL TRPA1” (Cubist Pharmaceuticals, Inc., priority 2012, published 2014).
Entries after “also recorded” stand apart in the source; their conditions may differ.

Tests used:
[1] = 7-day i.p. repeat dose screening toxicity study; assay type: in vivo, rats; details: 50 mg/kg/day i.p. for 7 consecutive days
Method: The compound of Formula (I) was evaluated in a 7-day repeat dose screening toxicity study in female rats. In order to maximize systemic exposure, rats were administered compound of Formula (I) i.p. at 50 mg/kg/day for 7 consecutive days, to obtain the results shown in FIG. 9. Clinical chemistry parameters were evaluated on Days 3 and 8. Histopathology was performed on select organs including the liver, kidney, spleen, and lung.

[2] = tested on: serum chemistry biomarkers of hepatotoxicity; assay: Hepatotoxicity serum biomarker study, oral dose; assay type: in vivo, dogs; details: for serum biomarkers of hepatotoxicity (ALT, AST, ALP, GGT): dogs, 50 mg/kg PO; for ALT levels elevation: single PO dose of 50 mg/kg
Text: […] 11A, showing measurements of alanine aminotranferease [ALT], aspartate aminotranferease [AST], alkaline phosphatase [ALP] and gamma-glutamyl transferase [GGT] in the dogs at each dose level (each bar represents a measurement from 1 dog in the study).

[3] = tested on: TRP channels and voltage-gated ion channels; assay: Selectivity over the panel of eight tested channels; assay type: cell-based, human; details: eight channels of Table 2
Method: Data for TRPA1 inhibition and the selectivity of TRPA1 inhibition was obtained by this method for the compound of Formula (I) and included in Table 1 and Table 2. All currents were recorded in whole-cell configuration using EPC-9 and EPC-10 amplifiers and Patchmaster software (HEKA). […] The standard pipette solution consisted of 140 mM CsAsp, 10 mM EGTA, 10 mM HEPES, 2.27 mM MgCl2, 1.91 mM CaCl2, 4 mM MgATP, and 0.1-0.3 mM Na2GTP, with pH adjusted to 7.2 with CsOH. In addition, a solution containing 145 mM CsCl, 10 mM HEPES, 10 mM EGTA and 1 mM MgCl2 (pH 7.2 adjusted with csOH) can be used. The standard bath solution contained 150 mM NaCl, 10 mM HEPES, 10 mM glucose, 4.5 mM KCl, 1 mM EGTA, 3 mM MgCl2, with pH adjusted to 7.4 with NaOH. In some instances, 2 mM CaCl2 was added in place of EGTA and the concentration of MgCl2 was reduced to 1 mM.

| Compound | serum biomarkers of hepatotoxicity ([1]; rats) | serum biomarkers of hepatotoxicity (ALT, AST, ALP, GGT) [2] | ALT levels elevation ([2]; female beagle dogs) | ALT levels elevation ([2]; male dogs) | selectivity for block of TRPA1 over all other tested channels [3] | histopathology of liver, kidney, spleen, lung ([1]; female rats, days 3 and 8, 50 mg/kg/day) |
| --- | --- | --- | --- | --- | --- | --- |
| C[C@H]1CCCN1c1ccc(-c2csc(NC(=O)Cn3cnc4c3c(=O)n(C)c(=O)n4C)n2)cc1F [Formula (III)] | did elevate serum biomarkers of hepatotoxicity | did elevate serum biomarkers of hepatotoxicity | up to 130 fold | up to 60 fold | – | – |
| C[C@H]1CCCN1c1ncc(-c2cccc(NC(=O)Cn3cnc4c3c(=O)n(C)c(=O)n4C)n2)cn1 [Formula (I)] | – | did not elevate serum biomarkers of hepatotoxicity or acute phase response | – | – | at least 100 fold | No histopathological findings; also recorded: no adverse effects |
